The test system of data set [1] is Mus musculus. Briefly: Toxicity in athymic nu/nu Harlan mouse xenografted with human HCT116 cells assessed as mouse survival at 50 mg/kg, po QD for 21 days measured on day 22. Conditions: in vivo, 504 h. It counts as organism-based, HCT-116. Details: dose 50 mg/kg, route oral. In general terms: In xenograft studies the graft and the host belong to different species.

The test system of data set [2] is Mus musculus. Put plainly: Toxicity in athymic nu/nu Harlan mouse xenografted with human HCT116 cells assessed as mouse survival at 25 mg/kg, po QD for 21 days measured on day 22. The class given is organism-based, HCT-116. Also noted: dose 25 mg/kg, route oral. Conditions: in vivo, 504 h.
A short description of data set [3]: Apparent permeability from basolateral to apical side of human Caco2 cells. It counts as ADME, cell-based. The conditions noted are these: Caco-2. (Caco-2 cells form a polarised layer with tight junctions and transporters.)
Data set [4] relates to HCT-116. Put plainly: Antitumor activity against human HCT116 cells xenografted in athymic nu/nu Harlan mouse assessed as tumor growth inhibition at 50 mg/kg, po qd for 21 days measured on day 22. It counts as functional. The conditions noted are these: read-out: TGI.
Data set [5] can be described thus: Half life in rat liver microsomes. The class given is ADME, Microsome. (In general: Liver microsomes are a subcellular fraction often used to study metabolism.)
Data set [6] is described as follows: Apparent permeability from apical to basolateral side of human Caco2 cells. It counts as ADME, cell-based. The conditions noted are these: Caco-2.
Data set [7] in a line: Kinetic solubility of the compound at pH 7 with […] DMSO. The class given is physicochemical. The conditions noted are these: buffer, read-out: Kinetic_solubility.
In data set [8] the test system is Mus musculus. Put plainly: Toxicity in athymic nu/nu Harlan mouse xenografted with human HCT116 cells assessed as body weight loss at 50 mg/kg, po QD for 21 days measured on day 5. Also noted: dose 50 mg/kg, route oral. The conditions noted are these: in vivo, 504 h. The class given is organism-based, HCT-116.
Data set [9] in a line: Half life in mouse liver microsomes. Conditions: liver microsomes. The class given is ADME, Microsome.
Data set [10] relates to Mus musculus. Briefly: Toxicity in athymic nu/nu Harlan mouse xenografted with human HCT116 cells assessed as mouse survival at 100 mg/kg, po QD for 21 days measured on day 22. The class given is organism-based, HCT-116. Also noted: dose 100 mg/kg, route oral. Conditions: in vivo, 504 h.
The test system of data set [11] is HCT-116. Briefly: Antitumor activity against human HCT116 cells xenografted in athymic nu/nu Harlan mouse assessed as tumor growth inhibition at 100 mg/kg, po qd for 21 days measured on day 22. It counts as functional. The conditions noted are these: read-out: TGI.
Data set [12] is described as follows: Half life in human liver microsomes. The class given is ADME, Microsome.
The subject of data set [13] is Mus musculus. Briefly: Toxicity in athymic nu/nu Harlan mouse xenografted with human HCT116 cells assessed as body weight loss at 100 mg/kg, po QD for 21 days measured on day 22. The conditions noted are these: in vivo, 504 h. Details: dose 100 mg/kg, route oral. The class given is organism-based, HCT-116.
Data set [14] in a line: Half life in dog liver microsomes. It counts as ADME, Canis lupus familiaris, Microsome.
A short description of data set [15]: 1-Octanol-sodium phosphate buffer distribution coefficient, log D of the compound at pH 7.4. The class given is physicochemical. Conditions: 1-octanol/sodium phosphate buffer, read-out: logD.
Data set [16] has as its system HCT-116. Briefly: Antitumor activity against human HCT116 cells xenografted in athymic nu/nu Harlan mouse assessed as tumor growth inhibition at 25 mg/kg, po qd for 21 days measured on day 22. The conditions noted are these: read-out: TGI. It counts as functional.
Data set [17] has as its system Mus musculus. Put plainly: Toxicity in athymic nu/nu Harlan mouse xenografted with human HCT116 cells assessed as body weight loss at 200 mg/kg, po QD for 7 days measured on day 5. The class given is organism-based, HCT-116. Details: dose 200 mg/kg, route oral. The conditions noted are these: in vivo, 168 h.
Data set [18] concerns HCT-116. Put plainly: Antitumor activity against human HCT116 cells xenografted in athymic nu/nu Harlan mouse assessed as tumor growth inhibition at 200 mg/kg, po qd for 21 days measured on day 22. The conditions noted are these: read-out: TGI. The class given is functional.
For another data set, the system named is A2780. Briefly: Antiproliferative activity against human A2780 cells after 96 hrs by celltiter 96 assay. It counts as functional, cell-based. Conditions: A2780, 96 h.
Data set [19] has as its target T1, Polyamine deacetylase HDAC10 (Homo sapiens, UniProt Q969S8).
T1 sequence (Q969S8 whole entry): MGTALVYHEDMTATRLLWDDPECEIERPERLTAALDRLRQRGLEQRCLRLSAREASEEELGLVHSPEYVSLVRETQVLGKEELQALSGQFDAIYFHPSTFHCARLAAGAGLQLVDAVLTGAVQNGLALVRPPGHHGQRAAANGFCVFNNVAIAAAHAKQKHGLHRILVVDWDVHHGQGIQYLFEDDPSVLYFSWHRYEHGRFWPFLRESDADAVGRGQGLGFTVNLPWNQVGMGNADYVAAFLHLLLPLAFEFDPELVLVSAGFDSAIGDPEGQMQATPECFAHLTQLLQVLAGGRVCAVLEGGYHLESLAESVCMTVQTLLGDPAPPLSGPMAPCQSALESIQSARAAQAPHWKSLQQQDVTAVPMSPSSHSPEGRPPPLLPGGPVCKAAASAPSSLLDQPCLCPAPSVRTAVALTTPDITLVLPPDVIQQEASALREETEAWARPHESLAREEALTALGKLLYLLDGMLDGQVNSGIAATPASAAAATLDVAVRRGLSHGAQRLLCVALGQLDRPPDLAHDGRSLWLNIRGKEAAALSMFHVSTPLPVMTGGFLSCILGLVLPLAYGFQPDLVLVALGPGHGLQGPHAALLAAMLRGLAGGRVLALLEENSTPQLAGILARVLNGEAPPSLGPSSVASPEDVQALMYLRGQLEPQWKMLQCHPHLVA
Description: Competitive inhibition of HDAC10 using KI-104 as substrate by fluorescence assay

Data set [20] deals with HCT-116. Put plainly: Antiproliferative activity against human HCT116 cells after 96 hrs by celltiter 96 assay. It counts as functional, cell-based. Conditions: HCT-116, 96 h.
A further data set has as its system COLO 205. Put plainly: Antiproliferative activity against human COLO205 cells after 96 hrs by celltiter 96 assay. It counts as functional, cell-based. Conditions: COLO 205, 96 h.
The subject of the next data set is PC-3. Put plainly: Antiproliferative activity against human PC3 cells after 96 hrs by celltiter 96 assay. The class given is functional, cell-based. Conditions: PC-3, 96 h.
Data set [21] relates to HCT-116. Put plainly: Antitumor activity against human HCT116 cells xenografted in athymic nude nu/nu CD1 mouse assessed as tumor growth inhibition at 40 mg/kg, ip qd for 7 days measured on day 10. The class given is functional. Conditions: HCT-116, ip, route intraperitoneal, read-out: TGI.
The nature of data set [22]: Oral bioavailability in nude BALB/c mouse at 50 mg/kg. It counts as ADME, organism-based. The conditions noted are these: in vivo.
The target of data set [23] is T2, Protein deacetylase HDAC6 (Homo sapiens, UniProt Q9UBN7).
T2 sequence (Q9UBN7 whole entry): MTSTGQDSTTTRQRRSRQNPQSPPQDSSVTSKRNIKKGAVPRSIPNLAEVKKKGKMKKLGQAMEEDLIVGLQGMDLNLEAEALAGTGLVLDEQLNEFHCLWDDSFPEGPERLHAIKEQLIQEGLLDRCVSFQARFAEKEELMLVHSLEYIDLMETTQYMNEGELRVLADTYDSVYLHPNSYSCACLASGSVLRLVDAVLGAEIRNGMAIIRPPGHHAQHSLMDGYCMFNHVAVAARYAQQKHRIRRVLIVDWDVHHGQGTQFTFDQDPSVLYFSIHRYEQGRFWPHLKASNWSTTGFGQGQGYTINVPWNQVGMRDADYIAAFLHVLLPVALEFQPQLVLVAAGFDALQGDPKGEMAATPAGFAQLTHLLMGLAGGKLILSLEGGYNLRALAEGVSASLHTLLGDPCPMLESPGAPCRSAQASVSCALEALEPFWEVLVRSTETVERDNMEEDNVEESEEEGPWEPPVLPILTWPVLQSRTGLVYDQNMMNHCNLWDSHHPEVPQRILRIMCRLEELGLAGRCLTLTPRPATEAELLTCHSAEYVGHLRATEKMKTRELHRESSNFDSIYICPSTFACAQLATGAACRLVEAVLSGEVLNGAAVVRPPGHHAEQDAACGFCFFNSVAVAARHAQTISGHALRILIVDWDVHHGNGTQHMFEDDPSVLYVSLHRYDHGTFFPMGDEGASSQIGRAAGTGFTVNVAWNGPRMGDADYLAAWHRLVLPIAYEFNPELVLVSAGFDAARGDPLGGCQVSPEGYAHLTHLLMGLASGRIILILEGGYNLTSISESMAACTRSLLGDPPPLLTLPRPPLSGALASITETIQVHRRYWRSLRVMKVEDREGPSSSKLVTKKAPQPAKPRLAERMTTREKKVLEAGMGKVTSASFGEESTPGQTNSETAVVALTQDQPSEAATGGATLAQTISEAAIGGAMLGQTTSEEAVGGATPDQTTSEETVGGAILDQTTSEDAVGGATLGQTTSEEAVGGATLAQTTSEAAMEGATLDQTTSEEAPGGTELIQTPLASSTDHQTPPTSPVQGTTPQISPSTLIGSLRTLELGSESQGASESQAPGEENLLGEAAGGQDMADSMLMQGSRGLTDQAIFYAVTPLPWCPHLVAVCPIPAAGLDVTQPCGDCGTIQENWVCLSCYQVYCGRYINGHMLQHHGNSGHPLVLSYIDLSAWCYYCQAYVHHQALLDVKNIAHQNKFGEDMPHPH
Description: Competitive inhibition of HDAC6 using KI-104 as substrate by fluorescence assay

Data set [24] deals with HCT-116. Briefly: Antitumor activity against human HCT116 cells xenografted in nude BALB/c mouse assessed as tumor growth inhibition at 200 mg/kg, po qd for 21 days measured on day 15. It counts as functional. The conditions noted are these: read-out: TGI.
The subject of data set [25] is Mus musculus. Put plainly: Toxicity in athymic nu/nu Harlan mouse xenografted with human HCT116 cells assessed as mouse survival at 200 mg/kg, po QD for 21 days measured on day 22. It counts as organism-based, HCT-116. Also noted: dose 200 mg/kg, route oral. The conditions noted are these: in vivo, 504 h.
Another data set has as its target Histone deacetylase 4 (Homo sapiens, UniProt P56524).

Histone deacetylase 4, sequence (P56524 whole entry): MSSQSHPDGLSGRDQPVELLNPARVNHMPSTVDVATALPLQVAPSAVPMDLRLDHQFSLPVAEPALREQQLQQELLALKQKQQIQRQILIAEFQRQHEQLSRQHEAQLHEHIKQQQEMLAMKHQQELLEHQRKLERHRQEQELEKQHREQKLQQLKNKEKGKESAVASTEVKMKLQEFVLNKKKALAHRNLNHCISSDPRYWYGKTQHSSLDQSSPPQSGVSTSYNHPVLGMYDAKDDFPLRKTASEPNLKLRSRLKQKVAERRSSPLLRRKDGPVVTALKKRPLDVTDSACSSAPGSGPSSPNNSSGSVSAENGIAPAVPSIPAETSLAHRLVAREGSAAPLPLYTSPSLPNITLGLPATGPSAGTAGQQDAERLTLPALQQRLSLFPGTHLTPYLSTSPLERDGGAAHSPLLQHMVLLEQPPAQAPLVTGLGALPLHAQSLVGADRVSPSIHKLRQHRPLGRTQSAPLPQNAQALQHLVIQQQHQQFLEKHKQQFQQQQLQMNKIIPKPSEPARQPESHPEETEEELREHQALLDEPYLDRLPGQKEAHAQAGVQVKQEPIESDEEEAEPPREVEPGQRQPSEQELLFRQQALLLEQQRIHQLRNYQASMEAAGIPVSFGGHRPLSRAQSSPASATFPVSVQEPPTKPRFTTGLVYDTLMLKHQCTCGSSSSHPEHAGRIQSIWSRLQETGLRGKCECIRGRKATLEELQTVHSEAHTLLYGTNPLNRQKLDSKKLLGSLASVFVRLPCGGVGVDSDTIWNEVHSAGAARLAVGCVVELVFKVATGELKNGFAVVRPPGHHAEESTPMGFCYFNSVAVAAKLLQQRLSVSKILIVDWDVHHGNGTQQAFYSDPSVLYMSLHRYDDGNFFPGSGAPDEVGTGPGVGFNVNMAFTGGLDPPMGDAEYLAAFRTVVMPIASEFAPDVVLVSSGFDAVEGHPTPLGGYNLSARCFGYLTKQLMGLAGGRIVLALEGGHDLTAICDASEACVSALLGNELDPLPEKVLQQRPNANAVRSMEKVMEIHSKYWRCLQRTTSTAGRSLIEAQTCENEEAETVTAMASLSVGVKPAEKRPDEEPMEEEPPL
Description for Histone deacetylase 4: Competitive inhibition of HDAC4 using KI-104 as substrate by fluorescence assay

Consider `CN(C)CC(C)(C)Cn1c(CC(C)(C)C)nc2cc(/C=C/C(=O)NO)ccc21.Cl.Cl`, for which the Activity entry is “Non-toxic” in the data set with Mus musculus [1]; “Non-toxic” in the data set with Mus musculus [2]; 5.6% in the data set on Mus musculus [8]; “Non-toxic” in the data set with Mus musculus [10]; 13.1% with Mus musculus [13]. Also, in data set [3], the Papp B→A (in general, how fast a substance crosses the layer from the basolateral side) came out at 14.9 ×10⁻⁶ cm/s. Moreover, in the data set on HCT-116 [4], the inhibition in vivo at 50 mg/kg worked out at 55%. Further, the half-life – broadly, the time needed for the level to fall by half in the phase considered – is 41 min in [5], 20 min in [9], greater than 60 min in data set [12] and greater than 60 min in data set [14]. The Papp A→B (in general, the apparent permeability from the apical to the basolateral side of a cell layer) in data set [6] was 19.4 ×10⁻⁶ cm/s. The solubility kinetic in data set [7] was greater than 200 µM. For the same compound, in the data set on HCT-116 [11], the inhibition in vivo at 100 mg/kg is 85%. The logD (as a rule, the decadic logarithm of the distribution of all forms, ionised or not, between an organic phase and buffer at a given pH) in data set [15] worked out at 2.41. Further, the inhibition in vivo at 25 mg/kg with HCT-116 [16] turned out to be 30%.

As to `O=C(/C=C/c1cccc(S(=O)(=O)Nc2ccccc2)c1)NO` [BELINOSTAT], the Activity entry in the data set on Mus musculus [1] is on record as “Non-toxic”; with Mus musculus [17] it was 3.9%; in the data set on Mus musculus [10], “Non-toxic”; in the data set on Mus musculus [25], “Non-toxic”. Besides, the inhibition in vivo at 200 mg/kg in the data set with HCT-116 [18] is 29%; with HCT-116 [24], 42%. In addition, the inhibition in vivo at 50 mg/kg in the data set with HCT-116 [4] stood at 6%. The IC50 (commonly the concentration needed to halve the response being measured) with A2780 was 0.67 µM; with HCT-116 [20], 0.6 µM; with COLO 205, 0.7 µM; in the data set with PC-3, 0.45 µM. Moreover, the Ki (in general, the dissociation constant of the complex between target and ligand, obtained from inhibition or displacement) in data set [19] stood at 0.059 µM; in data set [23], 0.01 µM; on Histone deacetylase 4 it was 0.015 µM. In addition, the inhibition in vivo at 40 mg/kg in the data set on HCT-116 [21] was determined as 50%. Moreover, the bioavailability (as a rule, the share of a dose that reaches the circulation, judged against a reference dose that is usually intravenous) in data set [22] was determined as 6.7%. The inhibition in vivo at 100 mg/kg in the data set with HCT-116 [11] is 26%.

Source of the values: ChEMBL document CHEMBL1828590 (J Med Chem, 2011).
